According to patent publication US20160214956A1, “NOVEL SOLUBLE GUANYLATE CYCLASE ACTIVATORS AND THEIR USE” (GLAXOSMITHKLINE INTELLECTUAL PROPERTY DEVELOPMENT LIMITED, priority 2013, published 2016):
Where a name gives a salt, the structure may show the parent alone.

Target: T1, soluble guanylate cyclase (sGC) (Rattus norvegicus, UniProt P20595)
T1 construct: endogenous in cells; host or cells: primary rat aortic smooth muscle cells
T1 sequence (P20595 1-619): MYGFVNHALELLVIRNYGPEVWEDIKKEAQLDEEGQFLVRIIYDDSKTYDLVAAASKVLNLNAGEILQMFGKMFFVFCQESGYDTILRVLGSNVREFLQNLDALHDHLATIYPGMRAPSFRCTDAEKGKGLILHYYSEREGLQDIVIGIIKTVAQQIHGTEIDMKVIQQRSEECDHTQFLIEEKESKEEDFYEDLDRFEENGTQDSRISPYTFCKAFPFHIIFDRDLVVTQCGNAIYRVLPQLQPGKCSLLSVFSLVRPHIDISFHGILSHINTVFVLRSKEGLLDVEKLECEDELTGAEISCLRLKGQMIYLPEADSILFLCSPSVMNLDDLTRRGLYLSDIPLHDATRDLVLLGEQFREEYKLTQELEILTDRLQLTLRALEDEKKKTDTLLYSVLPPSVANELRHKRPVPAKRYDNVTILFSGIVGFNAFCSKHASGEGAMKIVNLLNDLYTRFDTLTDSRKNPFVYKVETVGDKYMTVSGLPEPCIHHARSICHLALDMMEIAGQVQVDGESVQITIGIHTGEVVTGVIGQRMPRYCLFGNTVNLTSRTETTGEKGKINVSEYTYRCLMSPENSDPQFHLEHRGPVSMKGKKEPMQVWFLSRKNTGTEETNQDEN
T1 sequence (P19686 1-690 partner): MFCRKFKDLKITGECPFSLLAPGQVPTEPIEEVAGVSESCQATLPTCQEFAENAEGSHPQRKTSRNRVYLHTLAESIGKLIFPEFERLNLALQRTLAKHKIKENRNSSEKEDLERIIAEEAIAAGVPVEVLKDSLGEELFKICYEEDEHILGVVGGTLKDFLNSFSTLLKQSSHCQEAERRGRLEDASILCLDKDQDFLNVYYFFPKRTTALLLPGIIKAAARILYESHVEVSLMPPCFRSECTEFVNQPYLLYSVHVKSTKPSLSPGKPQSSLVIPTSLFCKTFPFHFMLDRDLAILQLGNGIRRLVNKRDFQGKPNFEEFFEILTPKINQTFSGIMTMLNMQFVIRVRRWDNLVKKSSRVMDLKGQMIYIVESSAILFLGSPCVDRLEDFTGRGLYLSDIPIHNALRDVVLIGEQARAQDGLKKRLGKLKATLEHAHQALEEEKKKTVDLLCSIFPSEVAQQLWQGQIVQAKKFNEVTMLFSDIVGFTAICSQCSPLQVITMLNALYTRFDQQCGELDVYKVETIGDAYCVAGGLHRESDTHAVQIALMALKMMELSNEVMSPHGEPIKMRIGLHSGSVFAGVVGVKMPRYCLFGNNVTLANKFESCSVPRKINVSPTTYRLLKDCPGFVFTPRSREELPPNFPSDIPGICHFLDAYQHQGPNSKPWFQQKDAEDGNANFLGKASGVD
Assay: Cellular assay, VASP phosphorylation in rat aortic smooth muscle cells with ODQ
Assay type: cell-based
Conditions: phospho-VASP signal, primary rat aortic smooth muscle cells, 10 μM ODQ, 30 min incubation; 50% vs. Bmax; read-out: Cell assay pEC50 (converted)
Description: The activity of soluble guanylate cyclase (sGC) was tested in an assay based on measuring phosphorylation of the protein kinase G (PKG) substrate vasodilator-stimulated phosphoprotein (VASP) in rat aortic smooth muscle cells. […] Dimethylsulfoxide (DMSO) vehicle and varying concentrations of the compound to be tested were then added. Following a 30 min incubation at 37° C., media was aspirated and the cells were rinsed with phosphate-buffered saline (PBS) and fixed with 4% formaldehyde in PBS by incubating at room temperature for 20 min. Cells were then washed with PBS and permeabilized for 10 min using 0.1% triton X-100 in PBS. Following PBS rinsing, the cells were blocked for 90 min at room temperature with blocking buffer. The buffer was aspirated and the cells were treated overnight at 4° C. with primary antibody (pSer239-VASP, rabbit polyclonal Ab) diluted 1:500 in blocking buffer. Following three washes with 0.05% Tween 20, the cells were treated for 1 h at room temperature with a fluorescent labeled secondary antibody (IRDye® 800CW Donkey Anti-Rabbit IgG) diluted 1:2500 in blocking buffer with 0.05% Tween 20. Following two washes with PBS, infrared fluorescence was measured using an Odyssey Infrared Imaging System. The activity of a test compound was determined as the pEC50 value which is the concentration able to increase by 50% (vs. Bmax) the phospho-VASP fluorescent signal. Front. Pharmacol., 5 Jul. 2012|doi: 10.3389/fphar.2012.00128, Volume 3 July, 2012, Article number 128.

Row | EC50 | Compound
1 | 7.94 nM | Cc1cc(OCCCn2ccc(C#N)n2)ccc1CCc1ccc(F)cc1-c1cccc(-n2ncc(C(=O)O)c2C(F)(F)F)n1 [Example 18, 1-(6-(2-(4-(3-(3-cyano-1H-pyrazol-1-yl)propoxy)-2-methylphenethyl)-5-fluorophenyl)pyridin-2-yl)-5-(trifluoromethyl)-1H-pyrazole-4-carboxylic acid, sodium salt]
2 | 20 nM | Cc1cc(OCCCn2cncn2)ccc1CCc1ccc(F)cc1-c1cccc(-n2ncc(C(=O)O)c2C(F)(F)F)n1 [Example 17, 1-(6-(2-(4-(3-(1H-1,2,4-triazol-1-yl)propoxy)-2-methylphenethyl)-5-fluorophenyl)pyridin-2-yl)-5-(trifluoromethyl)-1H-pyrazole-4-carboxylic acid, sodium salt]
3 | 39.8 nM | Cc1cc(OCCCn2cc(C#N)cn2)ccc1CCc1ccc(F)cc1-c1cccc(-n2ncc(C(=O)O)c2C(F)(F)F)n1 [Example 15, 1-(6-(2-(4-(3-(4-cyano-1H-pyrazol-1-yl)propoxy)-2-methylphenethyl)-5-fluorophenyl)pyridin-2-yl)-5-(trifluoromethyl)-1H-pyrazole-4-carboxylic acid, sodium salt]
4 | 6.31 nM | COc1cnn(CCCOc2ccc(CCc3ccc(F)cc3-c3cccc(-n4ncc(C(=O)O)c4C(F)(F)F)n3)c(C)c2)c1 [Example 16, 1-(6-(5-Fluoro-2-(4-(3-(4-methoxy-1H-pyrazol-1-yl)propoxy)-2-methylphenethyl)phenyl)pyridin-2-yl)-5-(trifluoromethyl)-1H-pyrazole-4-carboxylic acid, sodium salt]
5 | 1.58 nM | Cc1cc(OCCCn2cccn2)ccc1CCc1ccc(F)cc1-c1cccc(-n2ncc(C(=O)O)c2C(F)(F)F)n1 [Example 14, 1-(6-(2-(4-(3-(1H-pyrazol-1-yl)propoxy)-2-methylphenethyl)-5-fluorophenyl)pyridin-2-yl)-5-(trifluoromethyl)-1H-pyrazole-4-carboxylic acid]

Row | Compound | EC50
6 | Cc1cc(OCCCC(F)(F)F)ccc1CCc1ccccc1-c1cccc(-n2ncc(C(=O)O)c2C(F)(F)F)n1 [Example 21, 1-(6-(2-(2-methyl-4-(4,4,4-trifluorobutoxy)phenethyl)phenyl)pyridin-2-yl)-5-(trifluoromethyl)-1H-pyrazole-4-carboxylic acid, sodium salt] | 7.94 nM
7 | Cc1cc(OCCCC(F)(F)F)ccc1CCc1ccc(F)cc1-c1cccc(-n2ncc(C(=O)O)c2C(F)(F)F)n1 [Example 13, 1-(6-(5-Fluoro-2-(2-methyl-4-(4,4,4-trifluorobutoxy)phenethyl)phenyl)pyridin-2-yl)-5-(trifluoromethyl)-1H-pyrazole-4-carboxylic acid] | 1.26 nM
8 | Cc1cc(OCCCC(F)(F)F)ccc1CCc1ccccc1-c1cccc(-n2ncc(C(=O)OC(C)C)c2C(F)(F)F)n1 [Example 22, Isopropyl 1-(6-(2-(2-methyl-4-(4,4,4-trifluorobutoxy)phenethyl)phenyl)pyridin-2-yl)-5-(trifluoromethyl)-1H-pyrazole-4-carboxylate] | 1260 nM
9 | CCOC(=O)c1cnn(-c2cccc(-c3ccccc3CCc3ccc(OCCCC(F)(F)F)cc3C)n2)c1C(F)(F)F [Example 19, Ethyl 1-(6-(2-(2-methyl-4-(4,4,4-trifluorobutoxy)phenethyl)phenyl)pyridin-2-yl)-5-(trifluoromethyl)-1H-pyrazole-4-carboxylate] | 251 nM
